{
  "source": "patent US9206209B2",
  "about": "“Nucleotide analogue, method of synthesis of nucleotide analogue, use of nucleotide analogue, antiviral pro-nucleotide, pharmaceutical composition” (priority 2010, dated 2015)",
  "key": {"[1]": {"tested_on": "CEM-T4 cells", "details": "cited from earlier work"}, "[2]": {"tested_on": "HIV", "design": "SI50: unit not given beside the values", "details": "*Estimated in cells CEM-T4; Baba M. et al. 1987; cited from earlier work"}, "[3]": {"assay": "Cytotoxicity determination (MTT test, 7 days)", "format": "cell-based", "details": "human, CEM-T4 cells", "method": "(§1) Cytotoxicity and anti-HIV activity of the compounds (XVIa-c) described above were examined in CEM-T4 cells according procedures described below.\n(§2) Cytotoxicity determination—CC50 and CC90 parameters—For determination of compounds (XVIa-c) cytotoxicity CEM-T4 and CEM-A were cultured in standard conditions (37° C., 5% CO2) on 96 wells culture plates in media RPMI/FCS 10% (v/v). Experiments were carried out in media contained tested compounds in concentrations of appropriate range. Cultures in neat medium (RPMI, 10% FCS) were used as a control ones. Viability of cells were determined after 7 days using MTT test in which to each well of culture plate were added 10 μL of MTT solution (5 mg/mL) and cultures were incubated 3 hours in temperature 37° C. After centrifugation supernatant was removed and DMSO was added to lyse the cells and to dissolve crystals of farmazan. Measurement of colour intensity was done using a plate reader (λ560 nm).\n(§3) Cytotoxicity calculation—reference absorbancy (K) was an average of measurements for five well of culture plate and accounts for 100% CEM-T4 or CEM-A cells viability. In each case absorbancy for cells cultured in media enriched with tested compounds was calculated as average of at least three measurements.\n(§4) Cells viability (P) were calculated according to formula:\n(§5) [formula] in which P—viability of cells, K—reference absorbancy, A—absorbancy for cells cultured in media enriched with tested compounds, T—absorbancy for neat medium (RPMI/10% FBS). On the basis of calculations graph showing dependence of viability and concentrations of tested compounds values of CC50 and CC90 were determined"}, "[4]": {"tested_on": "HIV", "assay": "Anti-HIV activity (inhibition of HIV replication, viral protein p24) in CEM-T4 cells", "format": "cell-based", "details": "for EC90: 90% inhibition of HIV replication; for SI50: selectivity index, CC50 vs EC50, CEM-T4 cells", "method": "as §1\nAnti HIV activity (EC50 and EC90)—parameter EC50 is defined as concentration of compounds in which replication of HIV is inhibited by 50% and parameter EC90 is defined as concentration of compounds in which replication of HIV is inhibited by 90%. To determine these parameters CEM-T4 cells were preincubated 24 hours in standard conditions (37° C., 5% CO2) in standard medium [RPMI, FCS 10% (v/v)] enriched with tested compounds in concentrations in range 0.001-20 μM. Incubations were performed with 96 flat bottom wells culture plates. In each well 20000 cells were suspended in solution of tested compound (200 μL). For each concentration four cultures were done. As a reference, media containing AZT in concentration 1.25 μM, 2.5 μM, 5.0 μM, 10.0 μM, 20 μM were used. As a positive control of maximal replication of HIV, culture in neat standard medium [RPMI/FCS 10% (v/v)] was used. After 24 hours of incubation in medium enriched with tested compound and AZT, cells were inoculated with known amount of HIV and cultivation was continued 8 days and after this the amount of viral protein p24 (marker of HIV replication) was measured. Inhibition of HIV replication is presented as percentage of p24 content in culture performed with media containing tested compound and assuming that amount of p24 measured in control correspond 100% of HIV replication. The examinations of each tested substance for each concentration were run in triplicate."}, "[5]": {"tested_on": "HIV", "design": "SI50: unit not given beside the values", "details": "**Imbach J-L. et al. 1994; cited from earlier work"}, "[6]": {"tested_on": "CEM-T4 cells", "assay": "Cytotoxicity determination (MTT test, 7 days)", "format": "cell-based", "method": "as §1, §2, §3, §4, §5"}},
  "note": "Like-named read-outs stand apart in the source and are kept apart here.",
  "data": [
    {"smiles": "Nc1ncnc2c1ncn2[C@H]1CC[C@@H](CO)O1", "note": "[ddA, 2′,3′-dideoxyadenosine]", "values": [
      {"measurement": "CC50", "setting": "[1]; *Estimated in cells CEM-T4, Baba M. et al. 1987", "result": "> 250000", "unit": "nM"},
      {"measurement": "EC50", "setting": "[2]", "result": 2500, "unit": "nM"},
      {"measurement": "SI50", "setting": "[2]", "result": ">>100*"}
    ]},
    {"smiles": "Cc1cn([C@H]2C[C@H](N=[N+]=[N-])[C@@H](CO)O2)c(=O)[nH]c1=O", "note": "[AZT, 3′-azido-3′-deoxythymidine]", "values": [
      {"measurement": "CC50 at 7 days", "setting": "[3]", "result": 60000, "unit": "nM"},
      {"measurement": "EC50", "setting": "[4]; Human immunodeficiency virus 1, 192 h, CEM-T4 cells, 50% inhibition of HIV replication, p24 after 8 days", "result": 1.1, "unit": "nM"},
      {"measurement": "EC90", "setting": "[4]; Human immunodeficiency virus 1, 192 h, CEM-T4 cells, p24 after 8 days", "result": 16, "unit": "nM"},
      {"measurement": "SI50", "setting": "[4]", "result": 6000}
    ]},
    {"smiles": "O=c1ccn([C@H]2CC[C@@H](CO)O2)c(=O)[nH]1", "note": "[ddU, 2′,3′-dideoxyuridine]", "values": [
      {"measurement": "CC50", "setting": "[1]", "result": "> 250000", "unit": "nM"},
      {"measurement": "EC50", "setting": "[2]", "result": 48000, "unit": "nM"},
      {"measurement": "SI50", "setting": "[2]", "result": ">5.2*"}
    ]},
    {"smiles": "OC[C@@H]1CC[C@H](n2cnc3c(O)ncnc32)O1", "note": "[ddI, 2′,3′-dideoxyinosine]", "values": [
      {"measurement": "EC50", "setting": "[5]", "result": 1100, "unit": "nM"},
      {"measurement": "SI50", "setting": "[5]", "result": ">>91**"}
    ]},
    {"smiles": "Cc1cn([C@H]2C[C@H](N=[N+]=[N-])[C@@H](COP(=O)(O)Nc3ccncc3)O2)c(=O)[nH]c1=O", "note": "[(XVITc)]", "values": [
      {"measurement": "CC50", "setting": "[6]", "result": "> 190000", "unit": "nM"},
      {"measurement": "CC90", "setting": "[6]", "result": "> 190000", "unit": "nM"},
      {"measurement": "EC90", "setting": "[4]; CEM-T4 cells, p24 after 8 days", "result": 6, "unit": "nM"},
      {"measurement": "SI50", "setting": "[4]", "result": ">>19000"}
    ]}
  ]
}
